# Experimental data: patent US6362369B1, “Phthalic acid diamide derivatives fluorine-containing aniline compounds as starting material, agricultural and horticultural insecticides, and a method for application of the insecticides” (Nihon Nohyaku Co., Ltd., priority 1997, dated 2002)
# Legend:
# Assay type in all cases: in vivo
# [1] = test system: diamondback moth (Plutella xylostella); experiment: Insecticidal effect on diamondback moth (Test Example 1); details: diamondback moth; mortality judged by criterion of Test Example 1
# How it was run: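 Oviposition by adults on Chinese cabbage seedling; immersion; air-dry; 25° C room. Count of hatched larvae at day 6 post-immersion → mortality → effect graded by criterion. Triplicate, 10 insects/group.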
# [2] = test system: rice leafroller (Cnaphalocrocis medinalis); experiment: Insecticidal effect on rice leafroller (Test Example 3); details: rice leafroller third-instar larvae; rice lamina immersed, 500 ppm; four days after inoculation; 25° C., humidity 70%
# How it was run: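 Insecticidal effect is judged by a predefined criterion from dead/alive counts four days after infesting air-dried lamina with third-instar larvae, kept on moistened filter paper at 25° C, 70% humidity.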
# [3] = test system: common cutworm (Spodoptera Litura); experiment: Insecticidal effect on common cutworm (Test Example 2); details: common cutworm second-instar larvae; cabbage leaf immersed, 500 ppm; eight days after inoculation; 25° C.
# How it was run: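 Air-dried treated material was placed in a closed dish with second-instar larvae and held at 25° C. Dead and live insects were counted eight days after inoculation, and mortality was calculated and scored against a fixed insecticidal-effect criterion. Three replicate groups of 10 insects were used.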
SMILES,"Insecticidal effect, Test Example 1 [1]","Insecticidal effect, Test Example 3 [2]","Insecticidal effect, Test Example 2 [3]"
"Cc1cc(C(F)(F)C(F)(F)F)ccc1NC(=O)c1ccc(Cl)c(Cl)c1C(=O)NC(C)C [compound 1222, 3,4-dichloro-N^1-(4-pentafluoroethyl-2-methylphenyl)-N^2-isopropylphthalic acid diamide]",A (100),A (100),A (100)
Cc1cc(C(F)(C(F)(F)F)C(F)(F)F)ccc1NC(=O)c1ccc(Cl)c(Cl)c1C(=O)NC(C)C [compound 1223],A (100),A (100),A (100)
Cc1cc(OC(F)(F)F)ccc1NC(=O)c1ccc(F)c(Cl)c1C(=O)NC(C)C [compound 1227],A (100),A (100),A (100)
Cc1cc(C(F)(F)C(F)(F)F)ccc1NC(=O)c1ccc(F)c(Cl)c1C(=O)NC(C)C [compound 1228],A (100),A (100),A (100)
Cc1cc(C(F)(C(F)(F)F)C(F)(F)F)ccc1NC(=O)c1ccc(F)c(Cl)c1C(=O)NC(C)C [compound 1229],A (100),A (100),A (100)
Cc1cc(OC(F)(F)F)ccc1NC(=O)c1cccc(C(F)(F)F)c1C(=O)NC(C)(C)C [compound 1230],A (100),A (100),A (100)
Cc1cc(C(F)(F)C(F)(F)F)ccc1NC(=O)c1cccc(C(F)(F)F)c1C(=O)NC(C)(C)C [compound 1231],A (100),A (100),A (100)
Cc1cc(C(F)(C(F)(F)F)C(F)(F)F)ccc1NC(=O)c1cccc(C(F)(F)F)c1C(=O)NC(C)(C)C [compound 1232],A (100),A (100),A (100)
Cc1cc(OC(F)(F)F)ccc1NC(=O)c1ccc(I)cc1C(=O)NC(C)C [compound 1246],A (100),A (100),A (100)
Cc1cc(OC(F)(F)C(F)F)ccc1NC(=O)c1ccc(I)cc1C(=O)NC(C)C [compound 1248],A (100),A (100),A (100)
Cc1cc(C(F)(C(F)(F)F)C(F)(F)F)ccc1NC(=O)c1ccc(I)cc1C(=O)NC(C)C [compound 1250],A (100),A (100),A (100)
Cc1cc(C(F)(C(F)(F)F)C(F)(F)F)ccc1NC(=O)c1cc(I)ccc1C(=O)NC(C)C [compound 1251],A (100),A (100),A (100)
Cc1cc(C(F)(C(F)(F)F)C(F)(F)F)ccc1NC(=O)c1ccc(F)c(Cl)c1C(=O)NC(C)(C)C [compound 1263],A (100),A (100),A (100)
CCN(CC)C(=O)c1c(C(=O)Nc2ccc(C(F)(C(F)(F)F)C(F)(F)F)cc2C)ccc(F)c1Cl [compound 1264],A (100),A (100),A (100)
Cc1cc(C(F)(F)C(F)(F)F)ccc1NC(=O)c1ccc(Cl)cc1C(=O)NC(C)C [compound 1277],A (100),A (100),A (100)
Cc1cc(C(F)(F)C(F)(F)F)ccc1NC(=O)c1ccc(Cl)cc1C(=O)NC(C)(C)C [compound 1278],A (100),A (100),A (100)
CCN(CC)C(=O)c1cc(Cl)ccc1C(=O)Nc1ccc(C(F)(F)C(F)(F)F)cc1C [compound 1280],A (100),A (100),A (100)
Cc1cc(OC(F)(F)F)ccc1NC(=O)c1cc(F)c(F)cc1C(=O)NC(C)C [compound 1287],A (100),A (100),A (100)
Cc1cc(C(F)(F)C(F)(F)F)ccc1NC(=O)c1ccccc1C(=O)NC(C)CO (stereo not drawn) [compound 1294],A (100),A (100),A (100)
COc1ccc(-c2ccccc2)cc1NC(=O)c1c(Cl)cccc1C(=O)NC(C)C [compound 1295],A (100),A (100),A (100)

SMILES,"Insecticidal effect, Test Example 1 [1]","Insecticidal effect, Test Example 3 [2]","Insecticidal effect, Test Example 2 [3]"
COc1ccc(-c2ccccc2)cc1NC(=O)c1cccc(Cl)c1C(=O)NC(C)C [compound 1296],A (100),A (100),A (100)
CCCNC(=O)c1cccc(Cl)c1C(=O)Nc1cc(-c2ccccc2)ccc1OC [compound 1297],A (100),A (100),A (100)
Cc1cc(C(F)(F)C(F)(F)F)ccc1NC(=O)c1cccc(Cl)c1C(=O)NC(C)CO (stereo not drawn) [compound 1298],A (100),A (100),A (100)
CCC(CO)NC(=O)c1ccccc1C(=O)Nc1ccc(C(F)(F)C(F)(F)F)cc1C (stereo not drawn) [compound 1299],A (100),A (100),A (100)
Cc1cc(C(F)(F)C(F)(F)F)ccc1NC(=O)c1cccc(I)c1C(=O)NC(C)CO (stereo not drawn) [compound 1300],A (100),A (100),A (100)
CCCNC(=O)c1c(I)cccc1C(=O)Nc1ccc(C(F)(F)C(F)(F)F)cc1C [compound 1303],A (100),A (100),A (100)
Cc1cc(C#CC(C)(C)C)ccc1NC(=O)c1cccc(I)c1C(=O)NC(C)C [compound 1305],A (100),A (100),A (100)
Cc1cc(C(F)(F)C(F)(F)F)ccc1NC(=O)c1cccc(Cl)c1C(=O)NCc1ccccc1 [compound 1307],A (100),A (100),A (100)
Cc1cc(C(F)(F)C(F)(F)F)ccc1NC(=O)c1cccc(Cl)c1C(=O)NCc1ccccc1Cl [compound 1309],A (100),A (100),A (100)
CNC(=O)c1c(I)cccc1C(=O)Nc1ccc(C(F)(F)C(F)(F)F)cc1C [compound 1311],A (100),A (100),A (100)
CCNC(=O)c1c(I)cccc1C(=O)Nc1ccc(C(F)(F)C(F)(F)F)cc1C [compound 1313],A (100),A (100),A (100)
CCNC(=O)c1cccc(I)c1C(=O)Nc1ccc(C(F)(F)C(F)(F)F)cc1C [compound 1314],A (100),A (100),A (100)
Cc1cc(C(F)(F)C(F)(F)F)ccc1NC(=O)c1cccc(Cl)c1C(=O)NCC(C)O (stereo not drawn) [compound 1315],A (100),A (100),A (100)
CCC(CO)NC(=O)c1c(Cl)cccc1C(=O)Nc1ccc(C(F)(F)C(F)(F)F)cc1C (stereo not drawn) [compound 1316],A (100),A (100),A (100)
Cc1cc(C(F)(F)C(F)(F)F)ccc1NC(=O)c1cccc(Cl)c1C(=O)NC(C)(C)CO [compound 1317],A (100),A (100),C (89-80)
Cc1cc(C#N)ccc1NC(=O)c1cccc(Cl)c1C(=O)NC(C)C [compound 1330],A (100),A (100),A (100)
Cc1cc(C(F)(F)C(F)(F)F)ccc1NC(=O)c1cccc(Cl)c1C(=O)NCc1cccc(Cl)c1 [compound 1335],A (100),A (100),C (89-80)
Cc1cc(C(F)(F)C(F)(F)F)ccc1NC(=O)c1cccc(Cl)c1C(=O)NCc1cccc(Cl)c1Cl [compound 1353],A (100),A (100),A (100)
Cc1cc(C(F)(F)C(F)(F)F)ccc1NC(=O)c1cccc(Cl)c1C(=O)NCc1ccccn1 [compound 1355],A (100),A (100),A (100)
